Experiments:
Type in all cases: functional, cell-based
L1210 = test: Growth inhibition of mouse L1210 cells
HCT-116 = test: Growth inhibition of human HCT116 cells
HCT-116/VM46 = test: Growth inhibition of human HCT116/VM46 cells

SMILES	IC50 (L1210) [nM]	IC50 (HCT-116) [nM]	IC50 (HCT-116/VM46) [nM]
CC[C@]1(O)C[C@@H]2CN(CCc3c([nH]c4ccccc34)[C@@](C(=O)OC)(c3cc4c(cc3OC)N(C)[C@H]3[C@]5(O)C(=O)N(C)CCC5[C@@H]5CCCN6CC[C@]43C56)C2)C1 (some centres undefined)	570	520	6600
CC[C@]1(O)C[C@@H]2CN(CCc3c([nH]c4ccccc34)[C@@](C(=O)OC)(c3cc4c(cc3OC)N(C)[C@@H]3[C@]45CCN4CC=C[C@@](C)(C[C@]3(O)C(=O)OC)[C@H]45)C2)C1	550	560	5300
CC[C@]1(O)C[C@@H]2CN(CCc3c([nH]c4ccccc34)[C@@](C(=O)OC)(c3cc4c(cc3OC)N(C)[C@H]3[C@]5(O)C(=O)N(C)CCC5[C@]5(CC)CCCN6CC[C@]43C65)C2)C1 (some centres undefined)	8400	7900	> 10000
CC[C@]1(O)C[C@@H]2CN(CCc3c([nH]c4ccccc34)[C@@](C(=O)OC)(c3cc4c(cc3OC)N(C)[C@@H]3[C@]45CCN4CC=C[C@@H](C[C@]3(O)C(=O)OC)[C@H]45)C2)C1	610	400	3500
CC[C@]1(N)C[C@@H]2CN(CCc3c([nH]c4ccccc34)[C@@](C(=O)OC)(c3cc4c(cc3OC)N(C)[C@H]3[C@@](O)(C(=O)OC)[C@H](OC(C)=O)[C@]5(CC)C=CCN6CC[C@]43[C@@H]65)C2)C1	640	600	> 10000
CC[C@]1(SC#N)C[C@@H]2CN(CCc3c([nH]c4ccccc34)[C@@](C(=O)OC)(c3cc4c(cc3OC)N(C)[C@H]3[C@@](O)(C(=O)OC)[C@H](OC(C)=O)[C@]5(CC)C=CCN6CC[C@]43[C@@H]65)C2)C1	560	550	2900
CC[C@]1(O)C[C@@H]2CN(CCc3c([nH]c4ccccc34)[C@@](C(=O)OC)(c3cc4c(cc3OC)N(C)[C@@H]3[C@]45CCN4CC=C[C@@](CC)(C[C@]3(O)C(=O)OC)[C@H]45)C2)C1	58000	60000	660000
CC[C@]1(N=C=S)C[C@@H]2CN(CCc3c([nH]c4ccccc34)[C@@](C(=O)OC)(c3cc4c(cc3OC)N(C)[C@H]3[C@@](O)(C(=O)OC)[C@H](OC(C)=O)[C@]5(CC)C=CCN6CC[C@]43[C@@H]65)C2)C1	590	530	7000

The remaining lines, values ahead:

IC50 (L1210) [nM]	IC50 (HCT-116) [nM]	IC50 (HCT-116/VM46) [nM]	SMILES
670	690	5500	CC[C@]1(N=[N+]=[N-])C[C@@H]2CN(CCc3c([nH]c4ccccc34)[C@@](C(=O)OC)(c3cc4c(cc3OC)N(C)[C@H]3[C@@](O)(C(=O)OC)[C@H](OC(C)=O)[C@]5(CC)C=CCN6CC[C@]43[C@@H]65)C2)C1
8.1	6.1	–	CC[C@]1(O)C[C@@H]2CN(CCc3c([nH]c4ccccc34)[C@@](C(=O)OC)(c3cc4c(cc3OC)N(C)[C@H]3[C@@](O)(C(=O)OC)[C@H](C(=O)OC)[C@]5(CC)C=CCN6CC[C@]43[C@@H]65)C2)C1
7600	7700	> 10000	CC[C@]1(O)C[C@@H]2CN(CCc3c([nH]c4ccccc34)[C@@](C(=O)OC)(c3cc4c(cc3OC)N(C)[C@H]3[C@@](O)(C(=O)OC)[C@H](OC(C)=O)[C@]5(CC)C[C@@H](O)CN6CC[C@]43[C@@H]65)C2)C1
610	630	> 10000	CC[C@]1(O)C[C@@H]2CN(CCc3c([nH]c4ccccc34)[C@@](C(=O)OC)(c3cc4c(cc3OC)N(C)[C@H]3[C@@](O)(C(=O)OC)[C@H](OC(C)=O)[C@]5(CC)C[C@H](O)CN6CC[C@]43[C@@H]65)C2)C1
840	710	8600	CC[C@]1(O)C[C@@H]2CN(CCc3c([nH]c4ccccc34)[C@@](C(=O)OC)(c3cc4c(cc3OC)N(C)[C@H]3[C@@](O)(C(=O)OC)[C@H](OC(C)=O)[C@]5(CC)C[C@@H](Cl)CN6CC[C@]43[C@@H]65)C2)C1
–	–	600	CC[C@]1(O)C[C@@H]2CN(CCc3c([nH]c4ccccc34)[C@@](C(=O)OC)(c3cc4c(cc3OC)N(C)[C@H]3[C@@](O)(C(=O)OC)[C@H](OC(C)=O)[C@]5(CC)C=CCN6CC[C@]43[C@@H]65)C2)C1 [VINBLASTINE]

Source: ChEMBL document CHEMBL4229541, “Vinca alkaloids and analogues as anti-cancer agents: Looking back, peering ahead” (Bioorg Med Chem Lett, 2018)
